Measured values: patent US8563714B2, “Bridged spiro [2.4] heptane derivatives as ALX receptor and/or FPRL2 agonists” (Actelion Pharmaceuticals Ltd., priority 2009, dated 2013)

Tests used:
human ALX receptor = biological target: T1, human ALX receptor (Homo sapiens, UniProt P25090); assay: Intracellular calcium measurements (FLIPR), agonistic activity in HEK293-hALXR-Gα16 cells; format: cell-based; conditions: Fluo-4 calcium FLIPR, normalized to WKYMVm 10 nM
T1 construct: expressed in transfected cells; host or cells: HEK293 (HEK293-hALXR-Gα16)
T1 sequence (P25090 1-351): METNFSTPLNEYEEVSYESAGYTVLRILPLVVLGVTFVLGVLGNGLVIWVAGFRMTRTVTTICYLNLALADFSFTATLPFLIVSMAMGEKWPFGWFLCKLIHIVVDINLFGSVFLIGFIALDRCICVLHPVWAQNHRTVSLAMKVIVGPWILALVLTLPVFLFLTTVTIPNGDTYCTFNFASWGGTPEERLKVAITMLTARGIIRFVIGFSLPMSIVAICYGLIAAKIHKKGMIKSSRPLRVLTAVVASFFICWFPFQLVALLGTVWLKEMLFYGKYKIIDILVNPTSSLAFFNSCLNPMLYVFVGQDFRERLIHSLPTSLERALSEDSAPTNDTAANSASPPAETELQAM
Procedure, shortened: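 HEK293 cells expressing hALXR and Gα16 were loaded with 1 μM Fluo-4 AM and 20 mM HEPES for 60 min at 37°C, then exposed to serially diluted compound. FLIPR fluorescence was read at ex 488/em 540 nm. Baseline-subtracted peak responses were normalized to 10 nM WKYMVm.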

human FPRL2 = biological target: T2, human FPRL2 (Homo sapiens, UniProt P25089); assay: Intracellular calcium measurements (FLIPR), agonistic activity in HEK293-hFPRL2-Gα16 cells; format: cell-based; conditions: Fluo-4 calcium FLIPR, normalized to GLY14-Humanin 100 nM
T2 construct: expressed in transfected cells; host or cells: HEK293 (HEK293-hFPRL2-Gα16)
T2 sequence (P25089 1-353): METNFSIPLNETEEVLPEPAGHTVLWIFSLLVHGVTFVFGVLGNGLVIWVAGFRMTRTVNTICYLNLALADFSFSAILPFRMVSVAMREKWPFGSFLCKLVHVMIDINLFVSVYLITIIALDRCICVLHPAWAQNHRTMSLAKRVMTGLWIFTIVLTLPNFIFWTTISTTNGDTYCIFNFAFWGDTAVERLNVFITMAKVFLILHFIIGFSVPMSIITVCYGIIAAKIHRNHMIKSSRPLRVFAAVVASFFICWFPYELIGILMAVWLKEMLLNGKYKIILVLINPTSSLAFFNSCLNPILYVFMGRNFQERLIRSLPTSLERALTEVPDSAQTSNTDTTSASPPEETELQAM
Procedure, shortened: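 Peak values after baseline subtraction are expressed relative to 100 nM Gly14-Humanin; compounds diluted in assay buffer from 10 mM DMSO stocks.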

| Structure (SMILES) | EC50 (human ALX receptor) [nM] | EC50 (human FPRL2) [nM] |
| --- | --- | --- |
| O=C(NCCN1CCCC1)[C@H]1[C@H](C(=O)Nc2ccc(Br)cc2)[C@@H]2C=C[C@H]1C21CC1 (racemic) [Example 48, (5R*)—N^5-(4-Bromophenyl)-(6R*)—N^6-(2-pyrrolidin-1-yl-ethyl)-(4S*,7R*)-[4,7-ethenylene-spiro[2.4]heptane]-5,6-dicarboxamide] | 12 | 1380 |
| O=C(NCCn1cncn1)[C@H]1[C@H](C(=O)Nc2ccc(Br)cc2)[C@@H]2C=C[C@H]1C21CC1 (racemic) [Example 49, (5R*)—N^5-(4-Bromophenyl)-(6R*)—N^6-(2-1H-[1,2,4]-triazol-1-yl-ethyl)-(4S*,7R*)-[4,7-ethenylene-spiro[2.4]heptane]-5,6-dicarboxamide] | 12 | 1510 |
| O=C(NCc1ccoc1)[C@H]1[C@H](C(=O)Nc2ccc(Br)cc2)[C@@H]2C=C[C@H]1C21CC1 (racemic) [Example 50, (5R*)—N^5-(4-Bromophenyl)-(6R*)—N^6-(furan-3-yl-methyl)-(4S*,7R*)-[4,7-ethenylene-spiro[2.4]heptane]-5,6-dicarboxamide] | 13 | 1080 |
| CN(C)CCCCCNC(=O)[C@H]1[C@H](C(=O)Nc2ccc(Br)cc2)[C@@H]2C=C[C@H]1C21CC1 (racemic) [Example 51, (5R*)—N^5-(4-Bromophenyl)-(6R*)—N^6-(5-dimethyl-amino-pentyl)-(4S*,7R*)-[4,7-ethenylene-spiro[2.4]heptane]-5,6-dicarboxamide] | 8.2 | 1490 |
| CN(C)CCCNC(=O)[C@H]1[C@H](C(=O)Nc2ccc(Br)cc2)[C@@H]2C=C[C@H]1C21CC1 (racemic) [Example 52, (5R*)—N^5-(4-Bromophenyl)-(6R*)—N^6-(3-dimethyl-amino-propyl)-(4S*,7R*)-[4,7-ethenylene-spiro[2.4]heptane]-5,6-dicarboxamide] | 9.6 | 6360 |
| COCCCNC(=O)[C@H]1[C@H](C(=O)Nc2ccc(Br)cc2)[C@@H]2C=C[C@H]1C21CC1 (racemic) [Example 53, (5R*)—N^5-(4-Bromophenyl)-(6R*)—N^6-(3-methoxy-propyl)-(4S*,7R*)-[4,7-ethenylene-spiro[2.4]heptane]-5,6-dicarboxamide] | 16 | 5030 |
| O=C(NCCCn1cncn1)[C@H]1[C@H](C(=O)Nc2ccc(Br)cc2)[C@@H]2C=C[C@H]1C21CC1 (racemic) [Example 55, (5R*)—N^5-(4-Bromophenyl)-(6R*)—N^6-(3-1H-[1,2,4]-triazol-1-yl-propyl)-(4S*,7R*)-[4,7-ethenylene-spiro[2.4]heptane]-5,6-dicarboxamide] | 18 | 6680 |
| CC(C)(C)OC(=O)NCCCNC(=O)[C@H]1[C@H](C(=O)Nc2ccc(Br)cc2)[C@@H]2C=C[C@H]1C21CC1 (racemic) [Example 57, (5R*)—N^5-(4-Bromophenyl)-(6R*)—N^6-(3-(N-tert-butoxycarbonyl-amino)-propyl)-(4S*,7R*)-[4,7-ethenylene-spiro[2.4]heptane]-5,6-dicarboxamide] | 17 | 1660 |
| CC(C)CCNC(=O)[C@H]1[C@H](C(=O)Nc2ccc(Br)cc2)[C@@H]2C=C[C@H]1C21CC1 (racemic) [Example 58, (5R*)—N^5-(4-Bromophenyl)-(6R*)—N^6-(3-methyl-butyl)-(4S*,7R*)-[4,7-ethenylene-spiro[2.4]heptane]-5,6-dicarboxamide] | 20 | 6190 |
| COC(=O)CCNC(=O)[C@H]1[C@H](C(=O)Nc2ccc(Br)cc2)[C@@H]2C=C[C@H]1C21CC1 (racemic) [Example 60, (5R*)—N^5-(4-Bromophenyl)-(6R*)—N^6-(2-(methoxy-carbonyl)-ethyl)-(4S*,7R*)-[4,7-ethenylene-spiro[2.4]heptane]-5,6-dicarboxamide] | 22 | 1480 |
| NS(=O)(=O)c1ccc(CCNC(=O)[C@H]2[C@H](C(=O)Nc3ccc(Br)cc3)[C@@H]3C=C[C@H]2C32CC2)cc1 (racemic) [Example 61, (5R*)—N^5-(4-Bromophenyl)-(6R*)—N^6-(2-(4-aminosulfonyl-phenyl)-ethyl)-(4S*,7R*)-[4,7-ethenylene-spiro[2.4]heptane]-5,6-dicarboxamide] | 23 | 2270 |
| CCn1nc(CCNC(=O)[C@H]2[C@H](C(=O)Nc3ccc(Br)cc3)[C@@H]3C=C[C@H]2C32CC2)cc1C (racemic) [Example 62, (5R*)—N^5-(4-Bromophenyl)-(6R*)—N^6-(2-(1-ethyl-5-methyl-1H-pyrazol-3-yl)-ethyl)-(4S*,7R*)-[4,7-ethenylene-spiro[2.4]heptane]-5,6-dicarboxamide] | 24 | 363 |
| CCN(CC)CCNC(=O)[C@H]1[C@H](C(=O)Nc2ccc(Br)cc2)[C@@H]2C=C[C@H]1C21CC1 (racemic) [Example 66, (5R*)—N^5-(4-Bromophenyl)-(6R*)—N^6-(2-diethyl-amino-ethyl)-(4S*,7R*)-[4,7-ethenylene-spiro[2.4]heptane]-5,6-dicarboxamide] | 34 | 2220 |
| CCCCCNC(=O)[C@H]1[C@H](C(=O)Nc2ccc(Br)cc2)[C@@H]2C=C[C@H]1C21CC1 (racemic) [Example 67, (5R*)—N^5-(4-Bromophenyl)-(6R*)—N^6-(pentyl)-(4S*,7R*)-[4,7-ethenylene-spiro[2.4]heptane]-5,6-dicarboxamide] | 34 | > 25000 |
| CC(C)(C)OC(=O)NCCCCCNC(=O)[C@H]1[C@H](C(=O)Nc2ccc(Br)cc2)[C@@H]2C=C[C@H]1C21CC1 (racemic) [Example 68, (5R*)—N^5-(4-Bromophenyl)-(6R*)—N^6-(5-tert-butoxycarbonyl-amino-pentyl)-(4S*,7R*)-[4,7-ethenylene-spiro[2.4]heptane]-5,6-dicarboxamide] | 27 | 2170 |
| CC(C)CCN1CCC(NC(=O)[C@H]2[C@H](C(=O)Nc3ccc(Br)cc3)[C@@H]3C=C[C@H]2C32CC2)CC1 (racemic) [Example 69, (5R*)—N^5-(4-Bromophenyl)-(6R*)—N^6—(N-(3-methyl-butyl)-piperidin-4-yl)-(4S*,7R*)-[4,7-ethenylene-spiro[2.4]heptane]-5,6-dicarboxamide] | 58 | 708 |
| O=C(NCCc1ccccn1)[C@H]1[C@H](C(=O)Nc2ccc(Br)cc2)[C@@H]2C=C[C@H]1C21CC1 (racemic) [Example 70, (5R*)—N^5-(4-Bromophenyl)-(6R*)—N^6-(2-pyridin-2-yl-ethyl)-(4S*,7R*)-[4,7-ethenylene-spiro[2.4]heptane]-5,6-dicarboxamide] | 61 | 4380 |
| CC(C)(CNC(=O)OC(C)(C)C)CNC(=O)[C@H]1[C@H](C(=O)Nc2ccc(Br)cc2)[C@@H]2C=C[C@H]1C21CC1 (racemic) [Example 71, (5R*)—N^5-(4-Bromophenyl)-(6R*)—N^6-(2,2-dimethyl-3-N-tert-butoxycarbonyl-amino-propyl)-(4S*,7R*)-[4,7-ethenylene-spiro[2.4]heptane]-5,6-dicarboxamide] | 63 | 5550 |
| O=C(Nc1ccnn1-c1ccccc1)[C@H]1[C@H](C(=O)Nc2ccc(Br)cc2)[C@@H]2C=C[C@H]1C21CC1 (racemic) [Example 72, (5R*)—N^5-(4-Bromophenyl)-(6R*)—N^6-(1-phenyl-1H-pyrazol-5-yl)-(4S*,7R*)-[4,7-ethenylene-spiro[2.4]heptane]-5,6-dicarboxamide] | 70 | 1850 |
| O=C(NC1CC1)[C@H]1[C@H](C(=O)Nc2ccc(Br)cc2)[C@@H]2C=C[C@H]1C21CC1 (racemic) [Example 73, (5R*)—N^5-(4-Bromophenyl)-(6R*)—N^6-(cyclopropyl)-(4S*,7R*)-[4,7-ethenylene-spiro[2.4]heptane]-5,6-dicarboxamide] | 63 | 4610 |
| CCCCCCNC(=O)[C@H]1[C@H](C(=O)Nc2ccc(Br)cc2)[C@@H]2C=C[C@H]1C21CC1 (racemic) [Example 75, (5R*)—N^5-(4-Bromophenyl)-(6R*)—N^6-(hexyl)-(4S*,7R*)-[4,7-ethenylene-spiro[2.4]heptane]-5,6-dicarboxamide] | 73 | 7980 |
